# How the values were obtained:
# [1] = tested on: human RPE cells; experiment: [3H]thymidine incorporation / proliferation of cultured human RPE cells; conditions: for effect on RPE cell proliferation, agent alone: FIG. 3, alone
# Excerpt: Primary cultures of human retinal pigment epithelium (RPE) cells were established from eyes obtained from the Old Dominion Eye Bank (Richmond, Va.) or the Eye Bank of Maryland (Baltimore, Md.) using the technique described in P. A. Campochiaro, et al., Invest.
# For [3H]thymidine incorporation, RPE cells at passage 3 or 4 were lightly trypsinized and plated in 16-mm wells of 24-well plates. The transfected cells were allowed to attach overnight and then the media containing 5% fetal bovine serum (FBS) were supplemented with retinoids or vehicle alone. Stock solutions (10^−3M) of retinoids were prepared in dimethylsulfoxide (DMSO) and stored as frozen aliquots until used; the highest final concentration of DMSO was 0.1% and was also used for control cultures. The media containing freshly prepared retinoids were changed every three days. At 7 or 10 days 2 μCi/ml of [^3H]thymidine (specific activity, 6.7 Ci/mM; New England Nuclear, Boston, Mass.) was added to the cultures and incorporation was measured as previously described (Leschey, supra).
# The potency of retinoid agonists for inhibition of serum stimulated DNA synthesis in human RPE cells was tested. […] The cells were shifted to serum-free media containing the same concentration of retinoid and then pulsed with 10% serum for 18 hours, after which [^3H]thymidine incorporation was measured. Thymidine incorporation for cells grown in control medium was used to calculate the percent inhibition of thymidine incorporation induced by four concentrations of each retinoid (each concentration tested in triplicate) which were then used to generate each line.
# [2] = tested on: traction retinal detachment in rabbits; experiment: Traction retinal detachment in rabbits after human RPE cells, intravitreal injection of 168 and 299; type: in vivo, rabbit
# [3] = tested on: traction retinal detachment in rabbits; experiment: Traction retinal detachment in rabbits after human RPE cells, subconjunctival injection; type: in vivo, rabbit; conditions: subconjunctival 0.3 mg once a day for five days
# Excerpt: Due to the toxicity of certain RAR agonists and because the effects of retinoids are delayed in onset and reversible, methods for sustained release of the retinoids were investigated. […] The therapeutic effect of the RAR specific agonists was greater than that of RA, which is an agonist for both RXRs and RARs. There were no signs of any toxicity to the retina.
# [4] = tested on: traction retinal detachment in rabbits; experiment: Traction retinal detachment in rabbits after human dermal fibroblasts, subconjunctival lipid microvesicles; type: in vivo, rabbit; conditions: for % Any RD / % Total RD / RD at 7 Days, Partial / RD at 7 Days, Total / RD at 14 Days, Partial / RD at 14 Days, Total / RD at 28 Days, Partial / RD at 28 Days, Total: human dermal fibroblasts
# [5] = tested on: traction retinal detachment in rabbits; experiment: Traction retinal detachment in rabbits after human dermal fibroblasts, subconjunctival injection
# [6] = tested on: traction retinal detachment in rabbits; experiment: Traction retinal detachment in rabbits after human dermal fibroblasts, intravitreous lipid microvesicles; conditions: for % Any RD / % Total RD / RD at 7 Days, Partial / RD at 7 Days, Total / RD at 14 Days, Partial / RD at 14 Days, Total / RD at 28 Days, Partial / RD at 28 Days, Total: human dermal fibroblasts
# Excerpt: In this experiment the retinoid was incorporated into lipid microvesicles utilizing standard techniques.
# [7] = tested on: RPE cells; experiment: RPE cell morphology after 10 days in retinoid; type: cell-based, human; conditions: 1 μm, 5% serum, on plastic
# [8] = tested on: rabbit cell injection model of PVR; experiment: Rabbit cell injection model of PVR (RPE cells), intravitreous injection of retinoids; type: in vivo; conditions: for Any RD (%) / Total RD (%): 28 Days
# Method: Briefly, pigmented rabbits were anesthetized with a subcutaneous injection of 5 mg/kg of xylazine and 25 mg/kg of ketamine, and the pupil of one eye was dilated with 2½% phenylephrine. Under direct observation 5×10^5 RPE cells were injected into the vitreous cavity just anterior to the optic nerve. […] .
# Rabbits were examined by indirect ophthalmoscopy on days 7, 14 and 28 and traction retinal detachments were graded. […] . The localized clouds decreased in size and cleared over 2 to 3 weeks. There were no visible changes in the retina. […] .
# It was felt that the hair loss and possibly the loss of appetite and death were due to systemic toxicity from drug that had gotten out of the eye. […] . None of the rabbits experienced hair loss and none died; their appetites appeared to be normal.
# [9] = tested on: retinas of the rabbits; experiment: Ocular toxicity after single intravitreous injection, histopathology of retina; type: in vivo, rabbit; conditions: single intravitreous injection of 100 μg, two weeks after injection
# Excerpt: The rabbits were killed two weeks after injection.
# [10] = molecular target: T1, RXRα (Homo sapiens, UniProt P19793); experiment: Transactivation, ER/RXR-α hybrid receptor + ERE-CAT reporter cotransfected in HeLa cells
# T1 sequence (P19793 227-458 limits assumed): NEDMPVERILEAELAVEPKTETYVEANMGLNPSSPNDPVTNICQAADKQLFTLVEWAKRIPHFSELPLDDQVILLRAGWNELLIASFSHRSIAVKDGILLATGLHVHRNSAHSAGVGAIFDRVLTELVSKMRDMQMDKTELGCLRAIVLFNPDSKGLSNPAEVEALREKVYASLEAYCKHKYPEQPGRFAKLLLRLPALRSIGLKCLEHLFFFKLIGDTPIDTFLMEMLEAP
# [11] = 50 μg, single intravitreous injection
# [12] = 100 μg intravitreous, two injections (day 1 and day 2 after cell injection)
# [13] = 100 μg intravitreous, two injections
# [14] = Homo sapiens, RPE, read-out: Percent Inhibition of [3H]thymidine incorporation in RPE cells
smiles,measurement,setting,value
"CC1=C(/C=C/C(C)=C/C=C/C(C)=C\C(=O)O)C(C)(C)CCC1 [13-cis RA, 13-cis-retinoic acid, reference compound]",IC50,"[1]; read-out: RPE 148 IC50 (50% inhibition of RPE cell growth relative to mock treated RPE cells), measured as in Example 2",0.03 µM
"CC1(C)CCOc2ccc(C#Cc3ccc(C(=O)O)cn3)cc21 [Compound 299, 6-[2-(4,4-dimethylchroman-6-yl)ethynyl]nicotinic acid]",% Any RD,[2],80%
same,% Total RD,[2],40%
same,"RD at 7 Days, Partial",[2],0
same,"RD at 7 Days, Total",[2],0
same,"RD at 14 Days, Partial",[2],1
same,"RD at 14 Days, Total",[2],1
same,"RD at 28 Days, Partial",[2],4
same,"RD at 28 Days, Total",[2],4
same,% Any RD,[3],0%
same,% Total RD,[3],0%
same,"RD at 7 Days, Partial",[3],0
same,"RD at 7 Days, Total",[3],0
same,"RD at 14 Days, Partial",[3],0
same,"RD at 14 Days, Total",[3],0
same,"RD at 28 Days, Partial",[3],0
same,"RD at 28 Days, Total",[3],0
same,% Any RD,[4],63%
same,% Total RD,[4],50%
same,"RD at 7 Days, Partial",[4],0
same,"RD at 7 Days, Total",[4],0
same,"RD at 14 Days, Partial",[4],0
same,"RD at 14 Days, Total",[4],1
same,"RD at 28 Days, Partial",[4],1
same,"RD at 28 Days, Total",[4],4
same,% Any RD,[5],40%
same,% Total RD,[5],0%
same,"RD at 7 Days, Partial",[5],0
same,"RD at 7 Days, Total",[5],0
same,"RD at 14 Days, Partial",[5],0
same,"RD at 14 Days, Total",[5],0
same,"RD at 28 Days, Partial",[5],4
same,"RD at 28 Days, Total",[5],0
same,effect on retinal detachments,[5],decreased the number of retinal detachments and slowed the rate at which they developed
same,prevention of traction retinal detachment,[6],not effective
same,% Any RD,[6],100%
same,% Total RD,[6],100%
same,"RD at 7 Days, Partial",[6],0
same,"RD at 7 Days, Total",[6],0
same,"RD at 14 Days, Partial",[6],0
same,"RD at 14 Days, Total",[6],0
same,"RD at 28 Days, Partial",[6],0
same,"RD at 28 Days, Total",[6],3
"C/C(=C\c1ccc(C(=O)O)cc1)c1ccc2c(c1)C(C)(C)CCC2(C)C [Compound 183, p-[(E)-2-(5,6,7,8-tetrahydro-5,5,8,8-tetramethyl-2-naphthyl)propenyl]-benzoic acid]",RPE cell morphology / cell overgrowth,[7],prevented cell overgrowth
same,Partial RD at 14 Days (number of eyes),[8]; [11],1
same,Partial RD at 28 Days (number of eyes),[8]; [11],1
same,Total RD at 14 Days (number of eyes),[8]; [11],2
same,Total RD at 28 Days (number of eyes),[8]; [11],2
same,Any RD (%),[8]; [11],33+ %
same,Total RD (%),[8]; [11],22%
same,Partial RD at 14 Days (number of eyes),[8]; [12],0
same,Partial RD at 28 Days (number of eyes),[8]; [12],0
same,Total RD at 14 Days (number of eyes),[8]; [12],0
same,Total RD at 28 Days (number of eyes),[8]; [12],0
same,Any RD (%),[8]; [13],0++ %
same,Total RD (%),[8]; [13],0%
same,frequency and severity of traction retinal detachments versus vehicle,"[8]; initial group, intravitreous injections of 100 μg",None of these rabbits developed retinal detachments
same,frequency and severity of retinal detachments versus control,[8]; single intravitreous injection one day after RPE cell injection,fewer (p(0.05) and less severe retinal detachments
same,deaths before completion of the 28 day observation period,"[8]; two intravitreous injections of 100 μg, five rabbits",two rabbits died
same,"photoreceptor degeneration, histopathology",[9],Occasional focal areas of photoreceptor degeneration were seen in one eye
same,inhibition at 0.05 µM,[1]; [14],76.7%
same,inhibition at 0.1 µM,[1]; [14],98.6%
same,inhibition at 1 µM,[1]; [14],98.8%
same,inhibition of RPE cell proliferation,[1]; comment on Table 3,effective inhibitors of RPE cell proliferation
same,EC50,[10],15 µM
"N[C@@H](Cc1cc(I)c(Oc2ccc(O)c(I)c2)c(I)c1)C(=O)O [Compound T3, reference compound]","effect on RPE cell proliferation, agent alone",[1],did not
"CCOC(=O)c1ccc(C#Cc2ccc3c(c2)C(C)(C)CCS3)nc1 [Compound 168, ethyl 6-[2-(4,4-dimethylthiochroman-6-yl)ethynyl]nicotinate]",% Any RD,[2],80%
same,% Total RD,[2],8%
same,"RD at 7 Days, Partial",[2],1
same,"RD at 7 Days, Total",[2],0
same,"RD at 14 Days, Partial",[2],1
same,"RD at 14 Days, Total",[2],0
same,"RD at 28 Days, Partial",[2],7
same,"RD at 28 Days, Total",[2],1
same,% Any RD,[3],16%
same,% Total RD,[3],16%
same,"RD at 7 Days, Partial",[3],0
same,"RD at 7 Days, Total",[3],0
same,"RD at 14 Days, Partial",[3],0
same,"RD at 14 Days, Total",[3],0
same,"RD at 28 Days, Partial",[3],1
same,"RD at 28 Days, Total",[3],0
same,inhibition of tractional retinal detachment,[4],substantially more effective at inhibiting tractional retinal detachment
same,% Any RD,[4],33%
same,% Total RD,[4],33%
same,"RD at 7 Days, Partial",[4],0
same,"RD at 7 Days, Total",[4],0
same,"RD at 14 Days, Partial",[4],1
same,"RD at 14 Days, Total",[4],0
same,"RD at 28 Days, Partial",[4],0
same,"RD at 28 Days, Total",[4],2
same,% Any RD,[5],60%
same,% Total RD,[5],20%
same,"RD at 7 Days, Partial",[5],0
same,"RD at 7 Days, Total",[5],0
same,"RD at 14 Days, Partial",[5],0
same,"RD at 14 Days, Total",[5],0
same,"RD at 28 Days, Partial",[5],4
same,"RD at 28 Days, Total",[5],2
same,effect on retinal detachments,[5],decreased the number of retinal detachments and slowed the rate at which they developed
same,prevention of traction retinal detachment,[6],very effective in preventing traction retinal detachment
same,% Any RD,[6],29%
same,% Total RD,[6],29%
same,"RD at 7 Days, Partial",[6],0
same,"RD at 7 Days, Total",[6],0
same,"RD at 14 Days, Partial",[6],0
same,"RD at 14 Days, Total",[6],0
same,"RD at 28 Days, Partial",[6],0
same,"RD at 28 Days, Total",[6],2
"C=C1/C(=C\C=C2/CCC[C@]3(C)[C@@H]([C@H](C)CCCC(C)(C)O)CC[C@@H]23)C[C@@H](O)C[C@@H]1O [Compound D3, 1,25-dihydroxyvitamin D3, reference compound]","effect on RPE cell proliferation, agent alone",[1],did not
